Test results published in patent US20250163104A1, “MACROCYCLIC IMMUNOMODULATORS” (priority 2021, published 2025).
Where a SMILES comes first, the peptide text is derived from it. Bridges are numbered along the chain shown (N, C = ends). [ ]: non-standard residue; d: D form. The star is where a group is joined. ξ: configuration not given here. Phe(4-COOH) = N[C@@H](Cc1ccc(C(=O)O)cc1)C(=O)O; Bip = N[C@@H](Cc1ccc(-c2ccccc2)cc1)C(=O)O; Phe(3-Me) = Cc1cccc(C[C@H](N)C(=O)O)c1; Val(3-OH) = CC(C)(O)[C@H](N)C(=O)O; 4Pal = N[C@@H](Cc1ccncc1)C(=O)O; Cha = N[C@@H](CC1CCCCC1)C(=O)O; Cit = NC(=O)NCCC[C@H](N)C(=O)O; dCha = N[C@H](CC1CCCCC1)C(=O)O; Thr(3ξ) = CC(O)[C@H](N)C(=O)O; Carboxymethyl = O=C(O)C*; Nle = CCCC[C@H](N)C(=O)O; Orn = NCCC[C@H](N)C(=O)O; Pra = C#CC[C@H](N)C(=O)O; Dab = NCC[C@H](N)C(=O)O; Dap = NC[C@H](N)C(=O)O; ξPra = C#CCC(N)C(=O)O; Propargyl = C#CC*

target: T1, human PD-1 / PD-L1-Ig binding on Jurkat cell line over-expressing human PD-1 (Jurkat-PD-1) (Homo sapiens, UniProt Q15116); assay: Jurkat-PD-1 Cell Binding High-Content Screening Assay (CBA); format: cell-based; settings: Jurkat-PD-1 cells, PE-labeled PD-L1-Ig 20 nM final; read-out: Jurkat HPD1_PDL1 IC50
T1 construct: expressed in transfected cells; host or cells: Jurkat
Procedure, shortened: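 Jurkat cells over-expressing human PD-1, in DMEM/10% FCS, pre-incubated with compound 2 h at 37° C. PE-labeled human PD-L1-Ig (20 nM final) added for 1 h; cells fixed in paraformaldehyde with Hoechst 33342 nuclear stain, washed, and bound fluorescence quantified by high-content imaging.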

T1 sequence (Q15116 25-288): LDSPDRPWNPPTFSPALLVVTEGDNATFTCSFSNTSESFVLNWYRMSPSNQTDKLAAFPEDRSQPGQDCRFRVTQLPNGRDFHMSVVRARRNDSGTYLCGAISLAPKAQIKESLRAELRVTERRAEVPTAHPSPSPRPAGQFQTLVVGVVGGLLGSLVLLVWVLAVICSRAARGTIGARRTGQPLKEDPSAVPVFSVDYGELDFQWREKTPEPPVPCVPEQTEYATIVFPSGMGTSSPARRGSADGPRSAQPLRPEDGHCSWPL

SMILES | IC50 [µM]
CC(C)C[C@@H]1NC(=O)[C@H](Cc2c[nH]c3ccccc23)NC(=O)[C@H](CC(=O)O)NC(=O)[C@H](Cc2ccc(O)cc2)NC(=O)[C@H](Cc2ccccc2)NC(=O)CSC[C@@H](C(=O)NCC(N)=O)NC(=O)[C@H](CO)NC(=O)[C@H](C(C)C)NC(=O)[C@H](CC(C)C)NC(=O)[C@H](CC(N)=O)NC(=O)[C@@H](C)NC(=O)[C@H](CCN)NC(=O)[C@H](C(C)C)NC(=O)[C@H](Cc2ccc(-c3ccccc3)cc2)NC1=O [Compound 1102] ({CH2CO}-FYDWL[Bip]V[Dab][dA]NLVSCG-NH2; thioether N-14) | 0.0711
CC(C)C[C@H]1NC(=O)[C@H](CCCN)NC(=O)[C@H](CCCNC(N)=O)NC(=O)[C@H](Cc2ccc(-c3ccccc3)cc2)NC(=O)[C@H](C(C)C)NC(=O)[C@H](Cc2c[nH]c3ccccc23)NC(=O)[C@H](CC(=O)O)NC(=O)[C@H](Cc2ccc(O)cc2)NC(=O)[C@H](CC(N)=O)NC(=O)CSC[C@@H](C(=O)N[C@@H](C)C(N)=O)NC(=O)[C@H]([C@@H](C)O)NC(=O)[C@H](C(C)C)NC(=O)[C@H](CC2CCCCC2)NC(=O)[C@H](CCN)NC1=O [Compound 1161] ({CH2CO}-NYDWV[Bip][Cit][Orn][dL][Dab][Cha]VTCA-NH2; thioether N-14) | 0.0161
CCCC[C@@H]1NC(=O)[C@H](CCN)NC(=O)[C@@H](CC(C)C)NC(=O)[C@H](CCCN)NC(=O)[C@H](C(C)C)NC(=O)[C@H](Cc2ccc(-c3ccccc3)cc2)NC(=O)[C@H](CC(C)C)NC(=O)[C@H](Cc2c[nH]c3ccccc23)NC(=O)[C@H](CC(=O)O)NC(=O)[C@H](Cc2ccc(C(=O)O)cc2)NC(=O)[C@H](Cc2ccc(OCC(=O)O)cc2)NC(=O)CSC[C@@H](C(=O)NCC(N)=O)NC(=O)[C@H](CO)NC(=O)[C@H](C(C)C)NC1=O [Compound 1410] ({CH2CO}-Y(Carboxymethyl)[Phe(4-COOH)]DWL[Bip]V[Orn][dL][Dab][Nle]VSCG-NH2; thioether N-14) | 0.0073
CC(C)C[C@@H]1NC(=O)[C@H](CC(N)=O)NC(=O)[C@@H](CC(C)C)NC(=O)[C@H](CN)NC(=O)[C@H](C(C)C)NC(=O)[C@H](Cc2ccc(-c3ccccc3)cc2)NC(=O)[C@H](C(C)C)NC(=O)[C@H](Cc2c[nH]c3ccccc23)NC(=O)[C@H](CC(=O)O)NC(=O)[C@H](Cc2ccncc2)NC(=O)[C@H](Cc2ccc(OCC(=O)O)cc2)NC(=O)CSC[C@@H](C(=O)NCC(N)=O)NC(=O)[C@H](CO)NC(=O)[C@H](C(C)C)NC1=O [Compound 1290] ({CH2CO}-Y(Carboxymethyl)[4Pal]DWV[Bip]V[Dap][dL]NLVSCG-NH2; thioether N-14) | 0.0506
CCCC[C@@H]1NC(=O)[C@H](CCCNC(=N)N)NC(=O)[C@@H](CC(C)C)NC(=O)[C@H](CCCN)NC(=O)[C@H]([C@@H](C)CC)NC(=O)[C@H](Cc2ccc(-c3ccccc3)cc2)NC(=O)[C@H](C(C)C)NC(=O)[C@H](Cc2c[nH]c3ccccc23)NC(=O)[C@H](CC(=O)O)NC(=O)[C@H](Cc2ccc(O)cc2)NC(=O)[C@H](Cc2ccc(OCC(=O)O)cc2)NC(=O)CSC[C@@H](C(=O)N[C@@H](C)C(N)=O)NC(=O)[C@H]([C@@H](C)O)NC(=O)[C@H](C(C)C)NC1=O [Compound 1150] ({CH2CO}-Y(Carboxymethyl)YDWV[Bip]I[Orn][dL]R[Nle]VTCA-NH2; thioether N-14) | 0.0489
COc1cccc(C[C@@H]2NC(=O)[C@H](CC(=O)O)NC(=O)[C@H](Cc3ccc(C(=O)O)cc3)NC(=O)[C@H](Cc3ccc(OCC(=O)O)cc3)NC(=O)CSC[C@@H](C(=O)N[C@@H](C)C(N)=O)NC(=O)[C@H]([C@@H](C)O)NC(=O)[C@H](C(C)C)NC(=O)[C@H](CC3CCCCC3)NC(=O)[C@H](CCN)NC(=O)[C@@H](CC(C)C)NC(=O)[C@H](CCCN)NC(=O)[C@H](CCC(=O)O)NC(=O)[C@H](Cc3ccc(-c4ccccc4)cc3)NC(=O)[C@H](C(C)C)NC2=O)c1 [Compound 1541] | 0.0166
CC(C)[C@@H]1NC(=O)[C@H](Cc2c[nH]c3ccccc23)NC(=O)[C@H](CC(=O)O)NC(=O)[C@H](Cc2ccc(OCC(=O)O)cc2)NC(=O)[C@H](CN)NC(=O)CSC[C@@H](C(=O)N[C@@H](C)C(N)=O)NC(=O)[C@H]([C@@H](C)O)NC(=O)[C@H](C(C)C)NC(=O)[C@H](CC2CCCCC2)NC(=O)[C@H](CCN)NC(=O)[C@@H](CC2CCCCC2)NC(=O)[C@H](CCCN)NC(=O)[C@H](CCCNC(N)=O)NC(=O)[C@H](Cc2ccc(-c3ccccc3)cc2)NC1=O [Compound 1643] ({CH2CO}-[Dap]Y(Carboxymethyl)DWV[Bip][Cit][Orn][dCha][Dab][Cha]VTCA-NH2; thioether N-14) | 0.0145

Second part, the compound after the results:

IC50 [µM] | SMILES
0.123 | CC(C)C[C@H]1NC(=O)[C@H](CCCN)NC(=O)[C@H](CCCCN)NC(=O)[C@H](Cc2ccc(-c3ccccc3)cc2)NC(=O)[C@H](C(C)C)NC(=O)[C@H](Cc2c[nH]c3ccccc23)NC(=O)[C@H](CC(=O)O)NC(=O)[C@H](Cc2ccncc2)NC(=O)[C@H](CN)NC(=O)CSC[C@@H](C(=O)N[C@@H](CCCN)C(N)=O)NC(=O)[C@H](CCCNC(=N)N)NC(=O)[C@H](C(C)C)NC(=O)[C@H](CC2CCCCC2)NC(=O)[C@H](CCN)NC1=O [Compound 2254] ({CH2CO}-[Dap][4Pal]DWV[Bip]K[Orn][dL][Dab][Cha]VRC[Orn]-NH2; thioether N-14)
0.632 | C#CC[C@H](NC(=O)[C@@H](C)NC(=O)[C@@H]1CSCC(=O)N[C@@H](Cc2ccncc2)C(=O)N[C@@H](Cc2ccc(OCC(=O)O)cc2)C(=O)N[C@@H](CC(=O)O)C(=O)N[C@@H](Cc2cccc(C)c2)C(=O)N[C@@H](Cc2ccc(OCC(=O)O)cc2)C(=O)N[C@@H](Cc2ccc(-c3ccccc3)cc2)C(=O)N[C@@H](Cc2ccc(OCC(=O)O)cc2)C(=O)N[C@@H](CCCN)C(=O)N[C@H](CC(C)C)C(=O)N[C@@H](CCN)C(=O)N[C@@H](CC2CCCCC2)C(=O)N[C@@H](C(C)(C)O)C(=O)N[C@@H](CO)C(=O)N1)C(N)=O [Compound 2328] ({CH2CO}-[4Pal]Y(Carboxymethyl)D[Phe(3-Me)]Y(Carboxymethyl)[Bip]Y(Carboxymethyl)[Orn][dL][Dab][Cha][Val(3-OH)]SC[dA][Pra]-NH2; thioether N-14)
0.0286 | CC(C)C[C@H]1NC(=O)[C@H](CCCN)NC(=O)[C@H](C(C)O)NC(=O)[C@H](Cc2ccc(-c3ccccc3)cc2)NC(=O)[C@H](C(C)C)NC(=O)[C@H](Cc2c[nH]c3ccccc23)NC(=O)[C@H](CC(=O)O)NC(=O)[C@H](Cc2ccc(OCC(=O)O)cc2)NC(=O)[C@H](CN)NC(=O)CSC[C@@H](C(=O)N[C@@H](CC(N)=O)C(N)=O)NC(=O)[C@H](C(C)O)NC(=O)[C@H](C(C)C)NC(=O)[C@H](CC2CCCCC2)NC(=O)[C@H](Cc2c[nH]cn2)NC1=O (stereo partly drawn) [Compound 2552] ({CH2CO}-[Dap]Y(Carboxymethyl)DWV[Bip][Thr(3ξ)][Orn][dL]H[Cha]V[Thr(3ξ)]CN-NH2; thioether N-14)
0.0081 | CC(C)C[C@H]1NC(=O)[C@H](CCCN)NC(=O)[C@H](CCC(=O)O)NC(=O)[C@H](Cc2ccc(-c3ccccc3)cc2)NC(=O)[C@H](C(C)C)NC(=O)[C@H](Cc2c[nH]c3ccccc23)NC(=O)[C@H](CC(=O)O)NC(=O)[C@H](Cc2ccc(C(=O)O)cc2)NC(=O)[C@H](CC(N)=O)NC(=O)CSC[C@@H](C(=O)N[C@@H](C)C(N)=O)NC(=O)[C@H]([C@@H](C)O)NC(=O)[C@H](C(C)C)NC(=O)[C@H](CC2CCCCC2)NC(=O)[C@H](CCN)NC1=O [Compound 2157] ({CH2CO}-N[Phe(4-COOH)]DWV[Bip]E[Orn][dL][Dab][Cha]VTCA-NH2; thioether N-14)
0.0205 | C#CCC(NC(=O)[C@H](CCCNC(=N)N)NC(=O)[C@@H]1CSCC(=O)N[C@@H](Cc2ccncc2)C(=O)N[C@@H](Cc2ccc(OCC(=O)O)cc2)C(=O)N[C@@H](CC(=O)O)C(=O)N[C@@H](Cc2c[nH]c3ccccc23)C(=O)N[C@@H](C(C)C)C(=O)N[C@@H](Cc2ccc(-c3ccccc3)cc2)C(=O)N[C@@H]([C@@H](C)CC)C(=O)N[C@@H](CCCN)C(=O)N[C@H](CC(C)C)C(=O)N[C@@H](CCN)C(=O)N[C@@H](CC(C)C)C(=O)N[C@@H](C(C)C)C(=O)N[C@@H]([C@@H](C)O)C(=O)N1)C(N)=O (stereo partly drawn) [Compound 1762] ({CH2CO}-[4Pal]Y(Carboxymethyl)DWV[Bip]I[Orn][dL][Dab]LVTCR[ξPra]-NH2; thioether N-14)
0.316 | C#CC[C@H](NC(=O)[C@@H]1CSCC(=O)N[C@@H](CCN)C(=O)N[C@@H](Cc2ccc(C(=O)O)cc2)C(=O)N[C@@H](CC(=O)O)C(=O)N[C@@H](Cc2cccc(C)c2)C(=O)N[C@@H](Cc2ccc(C(=O)O)cc2)C(=O)N[C@@H](Cc2ccc(-c3ccccc3)cc2)C(=O)N[C@@H](Cc2ccc(C(=O)O)cc2)C(=O)N[C@@H](CCCN)C(=O)N[C@H](CC(C)C)C(=O)N[C@@H](CCN)C(=O)N[C@@H](CC2CCCCC2)C(=O)N[C@@H](C(C)(C)O)C(=O)N[C@@H](CO)C(=O)N1)C(=O)O [Compound 2704] ({CH2CO}-[Dab][Phe(4-COOH)]D[Phe(3-Me)][Phe(4-COOH)][Bip][Phe(4-COOH)][Orn][dL][Dab][Cha][Val(3-OH)]SC[Pra]-OH; thioether N-14)
0.0036 | C#CCOc1ccc(C[C@@H]2NC(=O)CSC[C@@H](C(=O)N[C@@H](CCN)C(N)=O)NC(=O)[C@H](CCC(=O)O)NC(=O)[C@H](C(C)C)NC(=O)[C@H](CC3CCCCC3)NC(=O)[C@H](CCN)NC(=O)[C@@H](CC(C)C)NC(=O)[C@H](CCCN)NC(=O)[C@H](Cc3ccc(OCC(=O)O)cc3)NC(=O)[C@H](Cc3ccc(-c4ccccc4)cc3)NC(=O)[C@H](Cc3ccc(OCC(=O)O)cc3)NC(=O)[C@H](Cc3cccc(C)c3)NC(=O)[C@H](CC(=O)O)NC(=O)[C@H](Cc3ccc(OCC(=O)O)cc3)NC2=O)cc1 [Compound 1817] ({CH2CO}-Y(Propargyl)Y(Carboxymethyl)D[Phe(3-Me)]Y(Carboxymethyl)[Bip]Y(Carboxymethyl)[Orn][dL][Dab][Cha]VEC[Dab]-NH2; thioether N-14)
